ChEMBL document CHEMBL1909557, “Oligopeptide cyclophilin inhibitors: a reassessment” (Eur J Med Chem, 2011)
Active and inactive are the calls of the source. The rule behind the calls is not given here. Peptide text beside a SMILES is read from it.

Legend:
[1] = target: Peptidyl-prolyl cis-trans isomerase A (Homo sapiens) (UniProt P62937); experiment: Inhibition of PPIase activity of human recombinant cyclophilin-A using succinyl-Ala-Ala-Pro-Phe-4-nitroanilide as substrate at 100 uM by protease coupled assay
[2] = target: Peptidyl-prolyl cis-trans isomerase A (Homo sapiens) (UniProt P62937); experiment: Binding affinity to human recombinant cyclophilin-A up to 25 uM by isothermal titration calorimetry assay
[3] = target: Peptidyl-prolyl cis-trans isomerase A (Homo sapiens) (UniProt P62937); experiment: Inhibition of PPIase activity of human recombinant cyclophilin-A using succinyl-Ala-Ala-Pro-Phe-4-nitroanilide as substrate at 100 uM pretreated for 3 hrs before substrate addition by spectrophotometry

Peptidyl-prolyl cis-trans isomerase A (Homo sapiens), sequence (P62937 whole entry, looked up): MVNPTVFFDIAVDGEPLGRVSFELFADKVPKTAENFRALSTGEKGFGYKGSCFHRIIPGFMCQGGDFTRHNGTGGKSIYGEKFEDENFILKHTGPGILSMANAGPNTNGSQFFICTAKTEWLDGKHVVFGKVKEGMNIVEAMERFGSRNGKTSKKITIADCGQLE

inhibition [1]: inactive
Activity [2]: inactive
inhibition [3]: inactive
SMILES: N[C@@H](Cc1c[nH]c2ccccc12)C(=O)NCC(=O)N1CCC[C@H]1C(=O)O (H-Trp-Gly-Pro-OH)
